Measured values reported in patent publication US12403147B2, “Treatment of ocular inflammation following ocular surgery” (Oculis Operations Sàrl, priority 2019, dated 2025).
In brackets after ≈: the same amount, converted by molar mass.

How the values were obtained:
[1] = 25° C.; cited from earlier work
[2] = Description: For facilitating the interpretation of obtained results, the stress conditions of described studies should be converted to the condition of the currently running long term stability program for an eye drop formulation. For this purpose, the values of pH drop for stock formulations stored in glass containers from the study were compared with pH drop profile for a clinical batch stored at 25° C. in LDPE plastic containers without antioxidant (STS).

Compound | solubility in pure water [1] | storage time during which the antioxidant can stabilize the formulation [2]
OC[C@H]1O[C@@H]2O[C@H]3[C@H](O)[C@@H](O)[C@@H](O[C@H]4[C@H](O)[C@@H](O)[C@@H](O[C@H]5[C@H](O)[C@@H](O)[C@@H](O[C@H]6[C@H](O)[C@@H](O)[C@@H](O[C@H]7[C@H](O)[C@@H](O)[C@@H](O[C@H]1[C@H](O)[C@H]2O)O[C@@H]7CO)O[C@@H]6CO)O[C@@H]5CO)O[C@@H]4CO)O[C@@H]3CO [α-cyclodextrin] | 129.5 ± 0.7 mg/mL (≈ 133 mM) | 
OC[C@H]1O[C@@H]2O[C@H]3[C@H](O)[C@@H](O)[C@@H](O[C@H]4[C@H](O)[C@@H](O)[C@@H](O[C@H]5[C@H](O)[C@@H](O)[C@@H](O[C@H]6[C@H](O)[C@@H](O)[C@@H](O[C@H]7[C@H](O)[C@@H](O)[C@@H](O[C@H]8[C@H](O)[C@@H](O)[C@@H](O[C@H]9[C@H](O)[C@@H](O)[C@@H](O[C@H]1[C@H](O)[C@H]2O)O[C@@H]9CO)O[C@@H]8CO)O[C@@H]7CO)O[C@@H]6CO)O[C@@H]5CO)O[C@@H]4CO)O[C@@H]3CO [γ-cyclodextrin] | 249.2 ± 0.2 mg/mL (≈ 192 mM) | 
DL-Tartaric acid |  | at least 1 year
